We go through 24 compounds from patent US20260200928A1, “THERAPEUTIC COMPOUNDS” (Sanofi, priority 2022, published 2026).

pIC50: −log10 of the molar value.

In general, pIC50 refers to the IC50 on a negative log10 scale, so that one unit is a factor of ten.

For this experiment, the target named is T1, human IL-17A (Homo sapiens, UniProt Q16552).
T1 construct: purchased R&D Systems 7955-IL/CF
T1 sequence (Q16552 24-155): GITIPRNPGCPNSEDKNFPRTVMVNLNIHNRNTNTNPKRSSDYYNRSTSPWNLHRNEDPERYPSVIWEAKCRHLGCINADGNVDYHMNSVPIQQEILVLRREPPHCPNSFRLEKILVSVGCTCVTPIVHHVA
Kind of experiment: IL-17A AlphaLISA competition assay (block of IL-17A binding to its receptor IL-17RA). The settings on record: mean IC50 (n≥2), block of IL-17A binding to IL-17RA. In outline:
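Human recombinant IL-17A (7.5 nM stock) pre-incubated 30 min at RT with compound, then IL-17RA/Fc (5 nM stock) added for 90 min; AlphaLISA read with anti-Fc acceptor beads, biotinylated anti-IL-17A antibody (5 nM) and streptavidin donor beads (3 h, dark). IC50 from 4-parameter logistic fit, normalised to DMSO and 4 μM reference inhibitor; n≥2.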
A general note: In Alpha technology, singlet oxygen from a donor bead excites a nearby acceptor bead.
In the case of `CCn1nccc1C(=O)NC(C(=O)Nc1cc(C[C@H]2C[C@@H](C(F)(F)F)NC2=O)ccn1)C(C1CC1)C1CC1` (stereo in doubt) [Example 230, N—((S)-1,1-dicyclopropyl-3-oxo-3-((4-(((3S,5S)-2-oxo-5-(trifluoromethyl)-pyrrolidin-3-yl)methyl)pyridin-2-yl)amino)propan-2-yl)-1-ethyl-1H-pyrazole-5-carboxamide], the pIC50 was 7.02.

For `Cn1nccc1C(=O)N[C@H](C(=O)Nc1cc([C@H](NC(=O)CCC(F)(F)F)C2CC2)ccn1)C1CCC(F)(F)CC1` [Example 107, N—((S)-2-((4-((R)-cyclopropyl(4,4,4-trifluorobutanamido)methyl)pyridin-2-yl)amino)-1-(4,4-difluorocyclohexyl)-2-oxoethyl)-1-methyl-1H-pyrazole-5-carboxamide], the pIC50 was 6.75.

`[2H]C(c1ccnc(NC(=O)[C@@H](NC(=O)OC(C)(C)C)[C@H]2CC[C@H](C)CC2)c1)N1C[C@@H](C(F)(F)F)NC1=O` (stereo partly drawn) [Example 151, Tert-butyl ((1S)-1-((1r,4S)-4-methylcyclohexyl)-2-oxo-2-((4-(((S)-2-oxo-4-(trifluoromethyl)-imidazolidin-1-yl)methyl-d)pyridin-2-yl)amino)ethyl)carbamate] showed a pIC50 of 6.40.

`COCC(c1ccnc(NC(=O)[C@@H](NC(=O)c2ccnn2C(C)C)[C@H]2CC[C@H](C)CC2)c1)N1C[C@@H](C(F)(F)F)NC1=O` (single isomer, unassigned) [Example 87] showed a pIC50 of 7.89.

In turn, `CCc1oncc1C(=O)N[C@H](C(=O)Nc1cc([C@@H](COC)N2C[C@@H](C(F)(F)F)NC2=O)ccn1)[C@@H]1C[C@H]2C[C@H]2C1` [Example 318, N—((S)-1-((1R,3s,5S)-bicyclo[3.1.0]hexan-3-yl)-2-((4-((S)-2-methoxy-1-((S)-2-oxo-4-(trifluoromethyl)imidazolidin-1-yl)ethyl)pyridin-2-yl)amino)-2-oxoethyl)-5-ethylisoxazole-4-carboxamide] showed a pIC50 of 7.19.

As to `CC(C)n1nccc1C(=O)N[C@H](C(=O)Nc1cc(OC2CCNC2=O)ccn1)[C@H]1CC[C@H](C)CC1` (stereo partly drawn) [Example 119, 1-isopropyl-N-((1S)-1-((1r,4S)-4-methylcyclohexyl)-2-oxo-2-((4-((2-oxopyrrolidin-3-yl)oxy)pyridin-2-yl)amino)ethyl)-1H-pyrazole-5-carboxamide], the pIC50 was 5.40.

Regarding `CCc1nonc1C(=O)N[C@H](C(=O)Nc1cc(CN2C[C@@H](C(F)(F)F)NC2=O)ccn1)[C@H]1CC[C@H](F)CC1` (single isomer, unassigned) [Example 290], the pIC50 was 6.80.

Compound `CC[C@H](c1ccnc(NC(=O)[C@@H](NC(=O)c2ccnn2C)C2CCC(F)(F)CC2)c1)N1C[C@@H](C(F)(F)F)NC1=O` [Example 214, N-((S)-1-(4,4-difluorocyclohexyl)-2-oxo-2-((4-((R)-1-((S)-2-oxo-4-(trifluoromethyl)imidazolidin-1-yl)propyl)pyridin-2-yl)amino)ethyl)-1-methyl-1H-pyrazole-5-carboxamide] had a pIC50 of 7.34.

In turn, `Cc1nonc1C(=O)N[C@H](C(=O)Nc1cc(CN2C[C@@H](C(F)(F)F)NC2=O)ccn1)[C@@H](C)OC(C)(C)C` [Example 128, N-((2S,3R)-3-(tert-butoxy)-1-oxo-1-((4-(((S)-2-oxo-4-(trifluoromethyl)-imidazolidin-1-yl)methyl)-pyridin-2-yl)amino)butan-2-yl)-4-methyl-1,2,5-oxa-diazole-3-carboxamide] showed a pIC50 of 5.63.

In the case of `Cc1cc(COC(=O)N[C@H](C(=O)Nc2cc(CN3C[C@@H](C(F)(F)F)NC3=O)ccn2)C2CCC(F)(F)CC2)no1` [Example 57, (5-Methylisoxazol-3-v)methyl ((S)-1-(4,4-difluorocyclohexyl)-2-oxo-2-((4-(((S)-2-oxo-4-(trifluoromethyl)imidazolidin-1-VI)methyl)pyridin-2-yl)amino)ethyl)carbamate], the pIC50 was 5.71.

`C[C@@H]1CN(Cc2ccnc(NC(=O)[C@@H](NC(=O)OC(C)(C)C)[C@H]3CC[C@H](C)CC3)c2)C(=O)N1` [Example 30] had a pIC50 of 6.32.

Compound `COCC(c1ccnc(NC(=O)[C@@H](NC(=O)OC(C)(C)C)[C@H]2CC[C@H](C)CC2)c1)N1C[C@@H](C(F)(F)F)NC1=O` (single isomer, unassigned) [Example 65, tert-butyl ((S)-2-((4-((S or R)-2-methoxy-1-((S)-2-oxo-4-(trifluoromethyl)imidazolidin-1-yl)ethyl)pyridin-2-yl)amino)-1-((1r,4S)-4-methylcyclohexyl)-2-oxoethyl)carbamate] showed a pIC50 of 6.28.

For `CCC(c1ccnc(NC(=O)C(NC(=O)c2ccnn2C)C2CCC(C)CC2)c1)N1CC(C(F)(F)F)NC1=O` [Example 259, 1-methyl-N-((S)-1-((1r,4S)-4-methylcyclohexyl)-2-oxo-2-((4-((R)-1-((S)-2-oxo-4-(trifluoromethyl)imidazolidin-1-yl)propyl)pyridin-2-yl)amino)ethyl)-1H-pyrazole-5-carboxamide], the pIC50 was 8.22.

`COC[C@H](c1ccnc(NC(=O)[C@@H](NC(=O)c2nonc2C2CC2)C2CCC(F)(F)CC2)c1)N1C[C@@H](C(F)(F)F)NC1=O` [Example 200, 4-cyclopropyl-N-((S)-1-(4,4-difluorocyclohexyl)-2-((4-((S)-2-methoxy-1-((S)-2-oxo-4-(trifluoromethyl)imidazolidin-1-yl)ethyl)pyridin-2-yl)amino)-2-oxoethyl)-1,2,5-oxadiazole-3-carboxamide] showed a pIC50 of 7.74.

As for `CCc1nonc1C(=O)N[C@H](C(=O)Nc1cc([C@@H](COC)N2C[C@@H](C(F)(F)F)NC2=O)ccn1)C1CCC(Cl)CC1` (stereo partly drawn) [Example 316, N-((1S)-1-(4-chlorocyclohexyl)-2-((4-((S)-2-methoxy-1-((S)-2-oxo-4-(trifluoromethyl)imidazolidin-1-yl)ethyl)pyridin-2-yl)amino)-2-oxoethyl)-4-ethyl-1,2,5-oxadiazole-3-carboxamide], the pIC50 is 7.34.

`CCn1nccc1C(=O)N[C@H](C(=O)Nc1cc([C@@H](COC)N2C[C@@H](C(F)(F)F)NC2=O)ccn1)C1CCC(C(F)(F)F)CC1` (stereo partly drawn) [Example 301, 1-ethyl-N-((1S)-2-((4-((S)-2-methoxy-1-((S)-2-oxo-4-(trifluoromethyl)imidazolidin-1-yl)ethyl)pyridin-2-yl)amino)-2-oxo-1-(4-(trifluoromethyl)-cyclohexyl)ethyl)-1H-pyrazole-5-carboxamide] had a pIC50 of 7.42.

`COCC(c1ccnc(NC(=O)C(NC(=O)Cc2c(C)noc2C)C2CCC(C)CC2)c1)N1CC(C(F)(F)F)NC1=O` [Example 113, (2S)-2-(2-(3,5-dimethyl-isoxazol-4-yl)acetamido)-N-(4-(2-methoxy-1-((S)-2-oxo-4-(trifluoromethyl)-imidazolidin-1-yl)ethyl)-pyridin-2-yl)-2-((1r,4S)-4-methylcyclohexyl)-acetamide]: the pIC50 is 6.00.

In the case of `COC[C@H](c1ccnc(NC(=O)[C@@H](NC(=O)c2ccnn2C)C(C2CC2)C2CC2)c1)N1C[C@@H](C(F)(F)F)NC1=O` [Example 228, N-((S)-1,1-dicyclopropyl-3-((4-((S)-2-methoxy-1-((S)-2-oxo-4-(trifluoromethyl)imidazolidin-1-yl)ethyl)pyridin-2-yl)amino)-3-oxopropan-2-yl)-1-methyl-1H-pyrazole-5-carboxamide], the pIC50 was 7.21.

As to `COCC(NC(=O)CCC(F)(F)F)c1ccnc(NC(=O)[C@@H](NC(=O)OC(C)(C)C)C2CCC(F)(F)CC2)c1` (single isomer, unassigned; diastereomer 1) [Example 131], the pIC50 was 6.17.

Turning to `COCC(NC(=O)CCC(F)(F)F)c1ccnc(NC(=O)[C@@H](NC(=O)c2nccn2C)C2CCC(F)(F)CC2)c1` (single isomer, unassigned) [Example 140], the pIC50 is 5.13.

Regarding `CC(C)n1ccnc1C(=O)N[C@H](C(=O)Nc1cc(C(NC(=O)CCC(F)(F)F)C2CC2)ccn1)C1CCC(F)(F)CC1` (stereo partly drawn) [Example 117, N-((1S)-2-((4-(cyclopropyl(4,4,4-trifluorobutanamido)methyl)pyridin-2-yl)amino)-1-(4,4-difluorocyclohexyl)-2-oxoethyl)-1-isopropyl-1H-imidazole-2-carboxamide], the pIC50 is 6.14.

As for `CC(C)(C)OCC(NC(=O)OCc1ccccc1)C(=O)Nc1cc(CN2C[C@@H](C(F)(F)F)NC2=O)ccn1` (mixture of isomers) [Example 81, Benzyl ((rac)-3-(tert-butoxy)-1-oxo-1-((4-(((S)-2-oxo-4-(trifluoromethyl)imidazolidin-1-yl)methyl)pyridin-2-yl)amino)propan-2-yl)carbamate], the pIC50 is 5.21.

Turning to “N-((S)-2-((4-((S)-1-(5,5-difluoro-2-oxotetrahydropyrimidin-1(2H)-yl)-2-methoxyethyl)pyridin-2-yl)amino)-1-(4,4-difluorocyclohexyl)-2-oxoethyl)-4-ethyl-1,2,5-oxadiazole-3-carboxamide [Example 183]”, the pIC50 is 7.38.

As for `C[C@@H](OC(C)(C)C)[C@H](NC(=O)OCc1ccccc1)C(=O)Nc1cc(CN2C[C@@H](C(F)(F)F)NC2=O)ccn1` [Example 101, benzyl ((2S,3R)-3-(tert-butoxy)-1-oxo-1-((4-(((S)-2-oxo-4-(trifluoromethyl)imidazolidin-1-yl)methyl)pyridin-2-yl)amino)butan-2-yl)carbamate], the pIC50 was 5.27.
